Results: US7037644B1, “Means and methods for monitoring non-nucleoside reverse transcriptase inhibitor antiretroviral therapy and guiding therapeutic decisions in the treatment of HIV/AIDS” (ViroLogic, Inc., priority 1998, dated 2006)

Columns and labels:
[1] = test system: RTV-1058 clone 10 (RT L100I, K103N, Y188L); test: Phenotypic susceptibility assay (patient RTV clone); assay type: cell-based, HIV-1
Excerpt: (§1) The resistance test vectors containing a functional luciferase gene cassette were constructed and host cells were transfected with the resistance test vector DNA. The resistant test vectors contained patient-derived reverse transcriptase and protease sequences that were either susceptible or resistant to the antiretroviral agents, such as nucleoside reverse transcriptase inhibitors, non-nucleoside reverse transcriptase inhibitors and protease inhibitors. The resistance test vector viral particles produced by transfecting the resistance test vector DNA into host cells, either in the presence or absence of protease inhibitors, were used to infect target host cells grown either in the absence of NRTI or NNRTI or in the presence of increasing concentrations of the drug. The amount of luciferase activity produced in infected target host cells in the presence of drug was compared to the amount of luciferase produced in infected target host cells in the absence of drug. Drug resistance was measured as the amount of drug required to inhibit by 50% the luciferase activity detected in the absence of drug (inhibitory concentration 50%, IC50). The IC50 values were determined by plotting percent drug inhibition vs. log10 drug concentration.
(§2) Host cells were seeded in 10-cm-diameter dishes and were transfected several days after plating with resistance test vector plasmid DNA and the envelope expression vector. Transfections were performed using a calcium-phosphate precipitation procedure. The cell culture media containing the DNA precipitate was replaced with fresh medium, from one to 24 hours, after transfection. Cell culture media containing resistance test vector viral particles was harvested one to four days after transfection and was passed through a […] filter before being stored at […]. HIV capsid protein (p24) levels in the harvested cell culture media were determined by an EIA method as described by the manufacturer (SIAC; Frederick, Md.). Before infection, target cells (293 and 293/T) were plated in cell culture media. Control infections were performed using cell culture media from mock transfections (no DNA) or transfections containing the resistance test vector plasmid DNA without the envelope expression plasmid. One to three or more days after infection the media was removed and cell lysis buffer (Promega) was added to each well. Cell lysates were assayed for luciferase activity (FIG. 3). The inhibitory effect of the drug was determined using the following equation: % luciferase inhibition=1−(RLUluc [drug]÷RLUluc)×100 where RLUluc [drug] is the relative light unit of luciferase activity in infected cells in the presence of drug and RLUluc is the Relative Light Unit of luciferase activity in infected cells in the absence of drug. IC50 values were obtained from the sigmoidal curves that were generated from the data by plotting the percent inhibition of luciferase activity vs. the log10 drug concentration. The drug inhibition curves are shown in (FIG. 3).
(§3) A resistance test vector was constructed as described in Example 1 from a patient sample designated 98-1058. This patient had been previously treated with ddI, d4T, AZT, 3TC, ddC and abacavir (NRTIs), indinavir and amprenavir (PRIs) and nevirapine (an NNRTI). Isolation of viral RNA and RT/PCR was used to generate a patient derived segment that comprised viral sequences coding for all of RP and aa 1-313 of RT. The PDS was inserted into an indicator gene viral vector to generate a resistance test vector designated RTV-1058. Individual clones of RTV-1058 were selected and were then tested in a phenotypic assay to determine accurately and quantitatively the level of susceptibility to a panel of anti-retroviral drugs. The panel of antiretroviral drugs comprised members of the classes known as NRTIs (AZT, 3TC, d4T, kkI an ddC), NNRTIs (delavirdine and nevirapine), an PRIs (indinavir, nelfinavir, ritonavir, and saquinavir). […]

[2] = test system: RTV-1058 clone 5 (RT L100I, K103N); test: as above; assay type: cell-based, HIV-1
Excerpt: as §1, §2, §3

[3] = test system: RTV-1058 clone 4 (RT K103N); test: as above; assay type: cell-based, HIV-1
Excerpt: as §1, §2, §3

[4] = test system: patient 780 virus (RT K103N, P225H); test: Phenotypic susceptibility assay (patient virus); assay type: cell-based, HIV; conditions: patient 780, FIGS. 8D-8F
Excerpt: FIGS. 8D, 8E, and 8F. Phenotypic Drug Susceptibility and Resistance Profile: Patients 780. This is a second example of the third pattern of NNRTI susceptibility/resistance. […] This pattern is characterized by a larger reduction of nevirapine suseptibility compared to the reduction of delavirdine susceptibility.
The resistance test vectors containing a functional luciferase gene cassette were constructed and host cells were transfected with the resistance test vector DNA. […] The IC50 values were determined by plotting percent drug inhibition vs. log10 drug concentration.
(§4) Host cells were seeded in 10-cm-diameter dishes and were transfected several days after plating with resistance test vector plasmid DNA and the envelope expression vector. […] HIV capsid protein (p24) levels in the harvested cell culture media were determined by an EIA method as described by the manufacturer (SIAC; Frederick, Md.). […] The inhibitory effect of the drug was determined using the following equation: % luciferase inhibition=1−(RLUluc [drug]÷RLUluc)×100 where RLUluc [drug] is the relative light unit of luciferase activity in infected cells in the presence of drug and RLUluc is the Relative Light Unit of luciferase activity in infected cells in the absence of drug. […]

[5] = test system: RTV-955, patient 98-955 (RT K101E, K103N, Y181C, G190A mixtures); test: Phenotypic susceptibility assay (patient RTV); assay type: cell-based, HIV-1; conditions: patient RTV pool
Method: (§5) The resistance test vectors containing a functional luciferase gene cassette were constructed and host cells were transfected with the resistance test vector DNA. The resistant test vectors contained patient-derived reverse transcriptase and protease sequences that were either susceptible or resistant to the antiretroviral agents, such as nucleoside reverse transcriptase inhibitors, non-nucleoside reverse transcriptase inhibitors and protease inhibitors. […] The IC50 values were determined by plotting percent drug inhibition vs. log10 drug concentration.
as §4

[6] = test system: patient 487 virus (RT M184V, K103N); test: Phenotypic susceptibility assay (patient virus); assay type: cell-based, HIV; conditions: patient 487, FIG. 4
Excerpt: Phenotypic drug susceptibility and resistance profile: patient 487. […] This is an example of the first pattern of NNRTI susceptibility/resistance.
as §5, §4

[7] = test system: K103N and Y181C double mutant; test: Phenotypic susceptibility assay (site directed mutant RTV); assay type: cell-based, HIV-1; conditions: FIG. 5
Excerpt: Phenotypic drug susceptibility and resistance profile of site directed reverse transcriptase mutants.
as §5, §4

[8] = test system: RTV-757, patient 98-757 (RT V106A, V108I, V189L); test: Phenotypic susceptibility assay (patient RTV); assay type: cell-based, HIV-1; conditions: patient RTV pool
Excerpt: as §1, §2
A resistance test vector was constructed as described in Example 1 from a patient sample designated 98-1033. […]

For `CC(C)Nc1cccnc1N1CCN(C(=O)c2cc3cc(NS(C)(=O)=O)ccc3[nH]2)CC1` [delavirdine], the “loss of susceptibility (fold, IC50)” value [1] was “greater than 250 fold”, the “loss of susceptibility (fold, IC50)” value [2] was 250 fold and the “loss of susceptibility (fold, IC50)” value [3] was 85 fold. The “change in susceptibility” value [4] was “reduced susceptibility”, the “decrease in susceptibility (fold, IC50)” value [5] was 4 fold and the “change in susceptibility” value [6] was “increased resistance”. For the same molecule, the “change in susceptibility” value [7] was “further increase in resistance” and the “decrease in susceptibility (fold, IC50)” value [8] was 10 fold.

With `Cc1ccnc2c1NC(=O)c1cccnc1N2C1CC1` [nevirapine] the “loss of susceptibility (fold, IC50)” value [1] was “greater than 800 fold”, the “loss of susceptibility (fold, IC50)” value [2] was 120 fold and the “loss of susceptibility (fold, IC50)” value [3] was “greater than 800 fold”. For the same molecule, the “change in susceptibility” value [4] was “reduced susceptibility”, the “decrease in susceptibility (fold, IC50)” value [5] was 530 fold and the “change in susceptibility” value [6] was “increased resistance”. The “change in susceptibility” value [7] was “further increase in resistance” and the “decrease in susceptibility (fold, IC50)” value [8] was “greater than 800 fold”.
